Patent US20080262082A1, “COMPOSITION CONTAINING S-(-)-TULIPALIN B OR ACETYLATED-S-(-)-TULIPALIN B” (BIO SPECTRUM, INC., priority 2007, published 2008)

Columns and labels:
Type in all cases: cell-based
[1] = system: Salmonella enteritidis KCTC 12400; test: MIC by broth dilution method; conditions: S. enteritidis, 37° C., 24 hours
[2] = system: Salmonella typhimurium KCTC 2514; test: MIC by broth dilution method; conditions: S. typhimurium, 37° C., 24 hours
[3] = system: Escherichia coli KCTC 1039; test: MIC by broth dilution method; conditions: E. coli, 37° C., 24 hours
[4] = system: Staphylococcus aureus KCTC 1916; test: MIC by broth dilution method; conditions: S. aureus, 37° C., 24 hours
[5] = system: Vibrio parahaemolyticus KCTC 27; test: MIC by broth dilution method; conditions: V. parahaemolyticus, 37° C., 24 hours
[6] = system: 8 anaerobic bacterial species; test: Agar diffusion antibacterial test, overall (anaerobic); conditions: anaerobic bacteria; concentration of 1.0%
[7] = system: 18 species of pathogenic bacteria (aerobic); test: Agar diffusion antibacterial test, overall (aerobic); conditions: all kinds of bacteria (aerobic); treatment concentration of 1.0%

| SMILES | MIC [1] [%] | MIC [2] [%] | MIC [3] [%] | MIC [4] [%] | MIC [5] [%] | Antibacterial activity [6] | Antibacterial effects [7] |
| --- | --- | --- | --- | --- | --- | --- | --- |
| O=C1C(N(CO)C(=O)NCO)N(CO)C(=O)N1CO (stereo not drawn) [Germall II] | 0.01 | 0.02 | 0.005 | 0.03 | 0.02 | – | – |
| C=C1C(=O)OC[C@@H]1O [R-(+)-tulipalin B, (4R)-4-hydroxy-3-methylene-oxolan-2-one, reference compound] | – | – | – | – | – | no antibacterial activity | no antibacterial effects |
| C/C=C/C=C/C(=O)O [Sorbic acid, reference compound] | 0.01 | 0.03 | 0.01 | 0.04 | 0.03 | – | – |
